In patent publication US20200069644A1, “NOVEL USE OF A FORMYL PEPTIDE RECEPTOR 2/ LIPOXIN A4 RECEPTOR (FPR2/ALX) AGONIST FOR TREATMENT OF HEART FAILURE” (BRISTOL- MYERS SQUIBB COMPANY, priority 2017, published 2020):

Assays:
[1] = test system: myocardial infarction in rats; assay: Rat model of permanent coronary artery occlusion, 6 weeks; type: in vivo
Protocol: In a second model of myocardial infarction, permanent coronary artery occlusion was carried out in rats using a ligature placed around the left anterior descending artery to induce myocardial infarction. Treatment with orally-administered Compound 1 (0.01, 0.1, 1, and 10 mg/kg, QD) or dosing solution without compound (QD, referred to as vehicle) was initiated 48 hours following myocardial infarction. Rats subjected to thoracotomy but not infarcted were included as surgical “sham” controls. Rats were evaluated 6 weeks following myocardial infarction to assess structure/function relationships. Hearts were removed from rats for histological processing to measure infarct wall thickness and collagen composition. Echocardiography was carried out to evaluate cardiac function.
The effects of Compound 1 on left ventricle and infarct scar remodeling were evaluated in a rat model of permanent coronary artery occlusion. […] In addition, the effect of Compound 1 on cardiac function was measured by echocardiography to assess structure/function relationships. The structure of the myocardial wall was measured histologically. […]
Echocardiography was used to measure cardiac function at the end of the treatment phase. The fraction of blood pumped out of the left ventricle per contraction cycle (i.e., ejection fraction) was determined using M-mode echocardiography. […]

Human FPR2 = target: T1, Human FPR2 (Homo sapiens, UniProt P25090); assay: FPR2 cAMP assay (cAMP inhibition); type: cell-based
T1 construct: expressed in transfected cells; host or cells: CHO-A12
T1 sequence (P25090 1-351): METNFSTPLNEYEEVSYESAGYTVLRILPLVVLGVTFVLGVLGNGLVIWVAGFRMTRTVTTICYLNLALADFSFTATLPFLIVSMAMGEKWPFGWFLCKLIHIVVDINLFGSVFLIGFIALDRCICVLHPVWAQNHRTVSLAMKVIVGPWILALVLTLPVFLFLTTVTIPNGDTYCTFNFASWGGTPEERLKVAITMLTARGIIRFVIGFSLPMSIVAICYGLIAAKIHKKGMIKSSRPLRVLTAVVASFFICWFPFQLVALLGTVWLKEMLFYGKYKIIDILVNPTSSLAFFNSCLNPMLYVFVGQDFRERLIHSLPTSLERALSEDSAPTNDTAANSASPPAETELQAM
Protocol: A mixture of forskolin (5 μM final for FPR2 or 10 μM final for FPR1) and IBMX (200 μM final) were added to 384-well Proxiplates (Perkin-Elmer) pre-dotted with test compounds in DMSO (1% final) at final concentrations in the range of 0.1 nM to 10 μM. CHO overexpressing human FPR1 or human FPR2 receptors were cultured in F-12 (Ham's) medium supplemented with 10% qualified FBS, 250 μg/ml zeocin and 300 μg/ml hygromycin (Life Technologies). Reactions were initiated by adding 2,000 human FPR2 cells per well or 4,000 human FPR1 cells per well in Dulbecco's PBS (with calcium and magnesium) (Life Technologies) supplemented with 0.1% BSA (Perkin-Elmer). The reaction mixtures were incubated for 30 min at room temperature. The level of intracellular cAMP was determined using the HTRF HiRange cAMP assay reagent kit (Cisbio) according to manufacturer's instruction. Solutions of cryptate conjugated anti-cAMP and d2 flurorophore-labelled cAMP were made in a supplied lysis buffer separately. […] After a 1 h room temperature incubation, time-resolved fluorescence intensity was measured using the Envision (Perkin-Elmer) at 400 nm excitation and dual emission at 590 nm and 665 nm. […] The potency and activity of Compound 1 to inhibit cAMP production was then determined by fitting to a 4-parametric logistic equation from a plot of cAMP level versus compound concentrations. […]

[2] = test system: myocardial infarction in mice; assay: Mouse model of permanent coronary artery occlusion, 28 days; type: in vivo
Protocol: Permanent coronary artery occlusion was carried out in mice using a ligature placed around the left anterior descending artery to induce myocardial infarction. Treatment with orally-administered Compound 1 (0.3 and 3 mg/kg; QD) or dosing solution without compound (QD, referred to as vehicle) was initiated 24 hours following myocardial infarction. Mice subjected to thoracotomy but not infarcted were included as surgical “sham” controls. Mice were evaluated 28 days following myocardial infarction to assess structure/function relationships. Hearts were removed from mice for histological processing to measure left ventricular dimensions, infarct areas and infarct collagen composition.
The effect of Compound 1 on left ventricle and infarct scar remodeling was evaluated in a mouse model of permanent coronary artery occlusion. MI was created by permanently ligating the left anterior descending artery with a surgical suture. Treatments (QD, PO) were initiated 24 hours after MI and were continued for 28 days. Treatments consisted of suspension vehicle and Compound 1 at 0.3 mg/kg and 3 mg/kg. A cohort of mice that were subjected to the procedure but were not infarcted were included as a “sham operated” surgical control group. At the end of 28 days of treatment, the hearts were removed for histological evaluation of left ventricle structure and scar structure.
This is a model of ischemic heart disease. Infarct size was measured within the left ventricle (LV) and reported as a percentage of the total left ventricle cross sectional area.

## COc1cc(F)c([C@@H]2CNC(=O)[C@H]2NC(=O)Nc2ccccc2)c(F)c1 [Compound 1, 1-((3S,4R)-4-(2,6-difluoro-4-methoxyphenyl)-2-oxopyrrolidin-3-yl)-3-phenylurea]
[1]; 0.01-10 mg/kg, between treatment groups or sham
  contralateral wall thickness: No changes
[1]; 10 mg/kg PO QD, started 48 h after MI, P<0.01
  transmural infarct wall thickness, increase relative to vehicle: 96%
Human FPR2; CHO cell lines, cAMP
  selectivity for human FPR2 vs. FPR1: 446 fold
Human FPR2; Human FPR2/CHO-A12
  EC50: 2.8 nM
[2]; 0.3 mg/kg PO QD, 28 days
  infarct wall thickness, % of mean thickness of sham: 61%
  reduction of LV chamber area vs. vehicle: 26%
[2]; 3 mg/kg PO QD, 28 days
  infarct wall thickness, % of mean thickness of sham: 67%
[2]; 3 mg/kg PO QD, 28 days (trend)
  reduction of LV chamber area vs. vehicle: 24%
[2]; 3 mg/kg PO QD, 28 days, started 24 h after MI, P<0.01
  reduction in LV anterior wall infarct size vs. vehicle: 55%
[2]; higher dose (3 mg/kg) PO QD, 28 days, P<0.05
  wall thickness difference vs. vehicle: 59%
